Laboratory results as given in US8338465B2, “Cyclic carboxylic acid rhodanine derivatives for the treatment and prevention of tuberculosis” (priority 2006, dated 2012).

The compounds below were run against T1, dihydrolipoamide acyltransferase (DlaT) (Mycobacterium tuberculosis, UniProt P9WIS7) (assay: DlaT inhibition (Dlat IC50); DTNB peroxidase assay with Lpd, DlaT and AhpD). Conditions: Dlat IC50 category.
T1 sequence (P9WIS7 1-553): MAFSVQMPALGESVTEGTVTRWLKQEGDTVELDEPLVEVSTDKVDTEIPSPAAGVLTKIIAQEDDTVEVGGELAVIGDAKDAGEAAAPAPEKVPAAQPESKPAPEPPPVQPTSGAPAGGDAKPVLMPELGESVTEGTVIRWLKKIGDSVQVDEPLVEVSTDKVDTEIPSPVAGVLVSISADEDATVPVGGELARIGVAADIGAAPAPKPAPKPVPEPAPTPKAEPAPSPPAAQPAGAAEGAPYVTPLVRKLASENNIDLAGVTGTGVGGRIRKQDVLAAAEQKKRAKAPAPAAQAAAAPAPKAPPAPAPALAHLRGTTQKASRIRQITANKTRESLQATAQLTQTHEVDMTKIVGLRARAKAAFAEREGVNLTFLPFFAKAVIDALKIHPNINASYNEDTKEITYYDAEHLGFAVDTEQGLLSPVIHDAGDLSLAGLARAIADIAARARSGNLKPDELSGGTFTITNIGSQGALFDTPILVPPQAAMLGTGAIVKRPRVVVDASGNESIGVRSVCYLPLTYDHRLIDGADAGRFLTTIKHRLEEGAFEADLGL
Assay type: biochemical
With `O=C(O)c1ccccc1NN1C(=O)C(=Cc2ccc(-c3cccc(-c4ccccc4)c3)o2)SC1=S` [Compound D40, 2-{5-[1-(5-biphenyl-3-yl-furan-2-yl)-methylidene]-4-oxo-2-thioxo-thiazolidin-3-ylamino}-benzoic acid] the IC50 was < 10 µM. `CC(=O)Nc1ccc(-c2ccc(C=C3SC(=S)N(Nc4ccccc4C(=O)O)C3=O)o2)cc1` [Compound D41, 2-{5-[5-(4-acetylamino-phenyl)-furan-2-ylmethylene]-4-oxo-2-thioxo-thiazolidin-3-ylamino}-benzoic acid] was tested, and the IC50 was < 10 µM. With `CC(=O)c1ccc(-c2ccc(C=C3SC(=S)N(Nc4ccccc4C(=O)O)C3=O)o2)cc1` [Compound D42, 2-{5-[1-[5-(4-acetyl-phenyl)-furan-2-yl]-methylidene]-4-oxo-2-thioxo-thiazolidin-3-ylamino}-benzoic acid] the IC50 was < 10 µM. For `O=C(O)c1ccccc1NN1C(=O)C(=Cc2ccc(-c3ccccc3F)o2)SC1=S` [Compound D43, 2-{5-[1-[5-(2-fluoro-phenyl)-furan-2-yl]-methylidene]-4-oxo-2-thioxo-thiazolidin-3-ylamino}-benzoic acid], the IC50 was < 10 µM. With `O=C(O)c1ccccc1NN1C(=O)C(=Cc2ccc(-c3cccc(CO)c3)o2)SC1=S` [Compound D44, 2-{5-[1-[5-(3-hydroxymethyl-phenyl)-furan-2-yl]-methylidene]-4-oxo-2-thioxo-thiazolidin-3-ylamino}-benzoic acid] the IC50 was < 10 µM. For `O=C(O)c1ccccc1NN1C(=O)C(=Cc2ccc(-c3ccc(F)cc3)o2)SC1=S` [Compound D45, 2-{5-[1-[5-(4-fluoro-phenyl)-furan-2-yl]-methylidene]-4-oxo-2-thioxo-thiazolidin-3-ylamino}-benzoic acid], the IC50 was < 10 µM. For `O=C(O)c1ccccc1NN1C(=O)C(=Cc2ccc(-c3ccc(OCc4ccccc4)cc3)o2)SC1=S` [Compound D48, 2-{5-[1-[5-(4-benzyloxy-phenyl)-furan-2-yl]-methylidene]-4-oxo-2-thioxo-thiazolidin-3-ylamino}-benzoic acid], the IC50 was 11 to 40 µM. For `CCCCOc1ccc(-c2ccc(C=C3SC(=S)N(Nc4ccccc4C(=O)O)C3=O)o2)cc1` [Compound D49, 2-{5-[1-[5-(4-butoxy-phenyl)-furan-2-yl]-methylidene]-4-oxo-2-thioxo-thiazolidin-3-ylamino}-benzoic acid], the IC50 was < 10 µM. For `CS(=O)(=O)c1ccc(-c2ccc(C=C3SC(=S)N(Nc4ccccc4C(=O)O)C3=O)o2)cc1` [Compound D50, 2-{5-[5-(4-methanesulfonyl-phenyl)-furan-2-ylmethylene]-4-oxo-2-thioxo-thiazolidin-3-ylamino}-benzoic acid], the IC50 was < 10 µM. `Cc1ccccc1-c1ccc(C=C2SC(=S)N(Nc3ccccc3C(=O)O)C2=O)o1` [Compound D51, 2-{4-oxo-2-thioxo-5-[1-(5-o-tolyl-furan-2-yl)-methylidene]-thiazolidin-3-ylamino}-benzoic acid] was tested, and the IC50 was < 10 µM. `CSc1cccc(-c2ccc(C=C3SC(=S)N(Nc4ccccc4C(=O)O)C3=O)o2)c1` [Compound D52, 2-{5-[1-[5-(3-methylsulfanyl-phenyl)-furan-2-yl]-methylidene]-4-oxo-2-thioxo-thiazolidin-3-ylamino}-benzoic acid] was tested, and the IC50 was < 10 µM. Compound `CSc1ccc(-c2ccc(C=C3SC(=S)N(Nc4ccccc4C(=O)O)C3=O)o2)cc1` [Compound D53, 2-{5-[1-[5-(4-methylsulfanyl-phenyl)-furan-2-yl]-methylidene]-4-oxo-2-thioxo-thiazolidin-3-ylamino}-benzoic acid] has an IC50 of 11 to 40 µM. `CC(C)Oc1ccc(-c2ccc(C=C3SC(=S)N(Nc4ccccc4C(=O)O)C3=O)o2)cc1` [Compound D54, 2-{5-[5-(4-isopropoxy-phenyl)-furan-2-ylmethylene]-4-oxo-2-thioxo-thiazolidin-3-ylamino}-benzoic acid] was tested, and the IC50 was < 10 µM. With `Cc1ccc(-c2cccc(C=C3SC(=S)N(Nc4ccccc4C(=O)O)C3=O)c2)cc1` [Compound D55, 2-{5-[1-(4′-methyl-biphenyl-3-yl)-methylidene]-4-oxo-2-thioxo-thiazolidin-3-ylamino}-benzoic acid] the IC50 was < 10 µM. Work on `Cc1ccc(-c2ccc(C=C3SC(=S)N(Nc4ccccc4C(=O)O)C3=O)cc2)cc1` [Compound D56, 2-{5-[1-(4′-methyl-biphenyl-4-yl)-methylidene]-4-oxo-2-thioxo-thiazolidin-3-ylamino}-benzoic acid] yielded an IC50 of 11 to 40 µM. With `O=C(O)c1ccccc1NN1C(=O)C(=Cc2ccc(-c3ccccc3-c3ccccc3)o2)SC1=S` [Compound D57, 2-{5-[1-(5-biphenyl-2-yl-furan-2-yl)-methylidene]-4-oxo-2-thioxo-thiazolidin-3-ylamino}-benzoic acid] the IC50 was < 10 µM. With `CCc1ccccc1-c1ccc(C=C2SC(=S)N(Nc3ccccc3C(=O)O)C2=O)o1` [Compound D58, 2-{5-[1-[5-(2-ethyl-phenyl)-furan-2-yl]-methylidene]-4-oxo-2-thioxo-thiazolidin-3-ylamino}-benzoic acid] the IC50 was < 10 µM. `CCCCc1ccc(-c2ccc(C=C3SC(=S)N(Nc4ccccc4C(=O)O)C3=O)o2)cc1` [Compound D59, 2-{5-[1-[5-(4-butyl-phenyl)-furan-2-yl]-methylidene]-4-oxo-2-thioxo-thiazolidin-3-ylamino}-benzoic acid] was tested, and the IC50 was < 10 µM. In the case of `CCCc1ccc(-c2ccc(C=C3SC(=S)N(Nc4ccccc4C(=O)O)C3=O)o2)cc1` [Compound D60, 2-{5-[1-[5-(4-propyl-phenyl)-furan-2-yl]-methylidene]-4-oxo-2-thioxo-thiazolidin-3-ylamino}-benzoic acid], the IC50 is reported as < 10 µM. `O=C(O)c1cccc(N2C(=O)C(=Cc3ccc(-c4cc5ccccc5s4)o3)SC2=S)c1` [Compound I1] was tested, and the IC50 was < 10 µM.

Same assay, conditions: Dlat IC50 category, Table 7, Compounds G1 to G4
`O=C(O)c1cccc(CCN2C(=O)C(=Cc3ccc(-c4ccccc4Cl)o3)SC2=S)c1` [Compound G1] was tested, and the IC50 was < 10 µM. With `O=C(O)c1cccc(CCN2C(=O)C(=Cc3ccc(-c4cccc(C(F)(F)F)c4)o3)SC2=S)c1` [Compound G2] the IC50 was < 10 µM. In the case of `O=C(O)c1cccc(CCN2C(=O)C(=Cc3ccc(-c4cc(C(F)(F)F)ccc4Cl)o3)SC2=S)c1` [Compound G3], the IC50 is reported as < 10 µM. In the case of `O=C(O)c1cccc(CCN2C(=O)C(=Cc3ccc(-c4cc(Cl)ccc4Cl)o3)SC2=S)c1` [Compound G4], the IC50 is reported as < 10 µM.

Same assay, conditions: Dlat IC50 category, Table 10, Compounds J1 to J3
With `O=C(O)C(Cc1ccccc1)N1C(=O)C(=Cc2ccc(-c3cc4ccccc4s3)o2)SC1=S` (stereo not shown) [Compound J3] the IC50 was < 10 µM.

Same assay, conditions: Dlat IC50 category, Table 13, Compounds M1 to M4
For `O=C(O)c1cncc(N2C(=O)C(=Cc3ccc(-c4ccccc4Cl)o3)SC2=S)c1` [Compound M1], the IC50 was < 10 µM. With `O=C(O)c1cncc(N2C(=O)C(=Cc3ccc(-c4cccc(C(F)(F)F)c4)o3)SC2=S)c1` [Compound M2] the IC50 was < 10 µM. For `CC(C)(C)c1ccc(-c2ccc(C=C3SC(=S)N(c4cncc(C(=O)O)c4)C3=O)o2)cc1` [Compound M3], the IC50 was < 10 µM. For `N#Cc1c(F)cccc1-c1ccc(C=C2SC(=S)N(c3cncc(C(=O)O)c3)C2=O)o1` [Compound M4], the IC50 was 11 to 40 µM.

Same assay, conditions: Dlat IC50 category, Table 14, Compounds N1 to N3
`O=C(O)c1cccc(N2C(=O)C(=Cc3ccc(Cc4ccccc4Cl)o3)SC2=S)c1` [Compound N1] was tested, and the IC50 was < 10 µM. `COc1ccc(C(=O)O)cc1N1C(=O)C(=Cc2ccc(Cc3ccccc3Cl)o2)SC1=S` [Compound N2] was tested, and the IC50 was 11 to 40 µM. In the case of `O=C(O)c1cc(N2C(=O)C(=Cc3ccc(Cc4ccccc4Cl)o3)SC2=S)ccc1O` [Compound N3], the IC50 is reported as < 10 µM.

Same assay, conditions: Dlat IC50 category, Table 16, Compounds P1 to P2
In the case of `O=C(O)C(c1ccccc1)N1C(=O)C(=Cc2cccc(-c3ccc(Cl)s3)n2)SC1=S` (stereo not shown) [Compound P1], the IC50 is reported as < 10 µM. With `O=C(O)CCN1C(=O)C(=Cc2cccc(-c3ccc(Cl)s3)n2)SC1=S` [Compound P2] the IC50 was 11 to 40 µM.

Same assay, conditions: Dlat IC50 category, Table 17, Compounds Q1 to Q9
With `O=C(O)c1cccc(N2C(=O)C(=Cc3ccc(-c4cncnc4)o3)SC2=S)c1` [Compound Q1] the IC50 was 11 to 40 µM. For `O=C(O)c1ccc(N2C(=O)C(=Cc3ccc(-c4cncnc4)o3)SC2=S)cc1` [Compound Q2], the IC50 was 11 to 40 µM. `NS(=O)(=O)c1ccc(N2C(=O)C(=Cc3ccc(-c4cncnc4)o3)SC2=S)cc1` [Compound Q3] gave an IC50 of 11 to 40 µM. Work on `O=C(O)c1cccc(N2C(=O)C(=Cc3ccc(-c4ccncc4)o3)SC2=S)c1` [Compound Q4] yielded an IC50 of 11 to 40 µM. `O=C(O)c1cc(N2C(=O)C(=Cc3ccc(-c4ccsc4Cl)o3)SC2=S)ccc1O` [Compound Q5] was tested, and the IC50 was 11 to 40 µM. `O=C(O)c1cccc(N2C(=O)C(=Cc3ccc(-c4ccc5nonc5c4)o3)SC2=S)c1` [Compound Q9] was tested, and the IC50 was 11 to 40 µM.

Same assay, conditions: Dlat IC50 category, Table 20, Prodrugs (Compounds T1 to T8)
`O=C(OCCCCO)c1cccc(N2C(=O)C(=Cc3ccc(-c4ccccc4Cl)o3)SC2=S)c1` [Compound T1, 3-{5-[1-[5-(2-Chloro-phenyl)-furan-2-yl]-methylidene]-4-oxo-2-thioxo-thiazolidin-3-yl}-benzoic acid 4-hydroxy-butyl ester] showed an IC50 of 41 to 80 µM. `O=C(OCCCO)c1cccc(N2C(=O)C(=Cc3ccc(-c4ccccc4Cl)o3)SC2=S)c1` [Compound T2, 3-{5-[1-[5-(2-Chloro-phenyl)-furan-2-yl]-methylidene]-4-oxo-2-thioxo-thiazolidin-3-yl}-benzoic acid 3-hydroxy-propyl ester] was tested, and the IC50 was 41 to 80 µM.

Same assay, conditions: read-out: Dlat IC50 category
`O=C(O)c1cccc(CCN2C(=O)C(=Cc3ccc(-c4cc5ccccc5s4)o3)SC2=S)c1` [Compound H1] was tested, and the IC50 was 11 to 40 µM.
